For orientation: IC50 means the concentration that inhibits the measured activity by half.

The structures appear in SMILES notation. Where two headings read alike, the source gives them in different places.

Results on 23 compounds are retold here after patent US8476298B2 (Exelixis, Inc., priority 2003, dated 2013).

The target of one assay is c-Kit kinase (Homo sapiens, UniProt P10721). The assay can be described thus: c-Kit AlphaScreen kinase assay.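 Further: c-Kit kinase phosphorylating biotinylated poly(Glu,Tyr), ATP near its KM, 1 h reaction at ambient temperature, AlphaScreen chemiluminescence with streptavidin donor and anti-phosphotyrosine acceptor beads, 10-point inhibitor titration.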 The class given is biochemical.
For assay [1], the target named is T1, c-Met (baculovirus expressed human c-Met kinase domain P948-S1343) (Homo sapiens, UniProt P08581).
T1 construct: human c-Met kinase domain P948-S1343; host or cells: baculovirus expression
The assay can be described thus: c-Met Luciferase-Coupled Chemiluminescent Kinase assay (LCCA).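 Further: kinase activity read as percent ATP left after reaction, by luciferase-luciferin chemiluminescence, with 1 µM ATP and 1 µM poly-EY substrate, 2 h at ambient temperature, 10-point dose-response.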 It is filed as biochemical.

Assay [2] has as its target T2, KDR (baculovirus expressed human KDR kinase domain D807-V1356) (Homo sapiens, UniProt P35968).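 Further: Luciferase-coupled chemiluminescent kinase assay, activity read as percent ATP left after 4 h reaction at ambient temperature, ATP near KM, 10-point dose-response in 384-well plates.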
T2 construct: human KDR kinase domain D807-V1356; host or cells: baculovirus expression
Kind of assay: biochemical.

In assay [3] the target is T3, Flt-4 (baculovirus expressed human Flt-4 kinase domain D725-R1298) (Homo sapiens, UniProt P35916).
T3 construct: human Flt-4 kinase domain D725-R1298; host or cells: baculovirus expression
Kind of assay: flt-4 Alphascreen Tyrosine Kinase assay.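 Further: AlphaScreen chemiluminescence read-out of biotinylated poly(Glu,Tyr) 4:1 phosphorylation via streptavidin donor and PY100 anti-phosphotyrosine acceptor beads, ATP near KM, 1 hr kinase reaction, 10-point dose-response.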 It is filed as biochemical. (In Alpha technology, singlet oxygen from a donor bead excites a nearby acceptor bead.)

In assay [4] the target is T4, Flt-3 (baculovirus expressed human Flt-3 kinase domain R571-S993) (Homo sapiens, UniProt P36888).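 Further: Luciferase-coupled chemiluminescent kinase assay, activity read as percent ATP left after a 3 h reaction at room temperature, ATP near KM, 10-point dose-response.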
T4 construct: human Flt-3 kinase domain R571-S993; host or cells: baculovirus expression
T4 sequence (P36888 571-993): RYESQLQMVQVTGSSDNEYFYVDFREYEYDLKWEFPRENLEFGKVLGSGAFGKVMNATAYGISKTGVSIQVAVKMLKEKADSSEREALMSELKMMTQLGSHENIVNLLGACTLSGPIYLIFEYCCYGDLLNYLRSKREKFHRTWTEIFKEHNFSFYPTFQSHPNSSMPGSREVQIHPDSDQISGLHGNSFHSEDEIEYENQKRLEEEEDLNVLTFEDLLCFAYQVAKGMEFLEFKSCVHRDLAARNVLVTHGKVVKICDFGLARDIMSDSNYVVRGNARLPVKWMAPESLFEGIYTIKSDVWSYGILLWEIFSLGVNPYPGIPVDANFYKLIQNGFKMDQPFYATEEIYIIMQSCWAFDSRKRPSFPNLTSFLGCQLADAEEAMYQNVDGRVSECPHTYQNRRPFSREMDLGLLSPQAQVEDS
Kind of assay: biochemical. To be noted: read-out: flt3 IC50.

Setting [5] is: Table 4, inhibition as IC50 class.

Sequence of c-Kit kinase (P10721 26-976): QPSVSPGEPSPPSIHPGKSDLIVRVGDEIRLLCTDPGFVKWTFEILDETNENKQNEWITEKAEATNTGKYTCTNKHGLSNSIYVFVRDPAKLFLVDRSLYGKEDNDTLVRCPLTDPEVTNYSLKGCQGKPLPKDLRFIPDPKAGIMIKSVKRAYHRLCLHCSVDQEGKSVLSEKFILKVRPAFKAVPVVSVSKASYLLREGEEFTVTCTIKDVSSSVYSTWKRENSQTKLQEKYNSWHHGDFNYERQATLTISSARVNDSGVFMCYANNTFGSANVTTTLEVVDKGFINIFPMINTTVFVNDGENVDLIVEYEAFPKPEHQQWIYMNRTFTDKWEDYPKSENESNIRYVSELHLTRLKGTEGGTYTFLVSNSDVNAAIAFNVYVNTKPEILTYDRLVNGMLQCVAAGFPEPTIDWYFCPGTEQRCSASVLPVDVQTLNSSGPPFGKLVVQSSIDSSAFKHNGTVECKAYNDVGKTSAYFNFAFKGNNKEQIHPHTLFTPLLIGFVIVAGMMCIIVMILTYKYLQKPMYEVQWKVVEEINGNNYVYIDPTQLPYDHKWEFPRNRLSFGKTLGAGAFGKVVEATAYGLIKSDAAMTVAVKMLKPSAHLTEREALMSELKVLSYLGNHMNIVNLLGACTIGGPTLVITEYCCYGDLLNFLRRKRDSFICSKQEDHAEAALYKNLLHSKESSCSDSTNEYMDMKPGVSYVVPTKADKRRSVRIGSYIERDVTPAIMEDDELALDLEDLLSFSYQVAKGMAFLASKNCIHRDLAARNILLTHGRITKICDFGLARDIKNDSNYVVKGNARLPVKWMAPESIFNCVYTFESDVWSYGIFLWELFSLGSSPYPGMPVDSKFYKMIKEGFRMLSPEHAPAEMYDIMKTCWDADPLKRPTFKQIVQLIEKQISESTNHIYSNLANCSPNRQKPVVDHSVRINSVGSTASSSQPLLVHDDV
T3 sequence (P35916 725-1298 isoform P35916-1): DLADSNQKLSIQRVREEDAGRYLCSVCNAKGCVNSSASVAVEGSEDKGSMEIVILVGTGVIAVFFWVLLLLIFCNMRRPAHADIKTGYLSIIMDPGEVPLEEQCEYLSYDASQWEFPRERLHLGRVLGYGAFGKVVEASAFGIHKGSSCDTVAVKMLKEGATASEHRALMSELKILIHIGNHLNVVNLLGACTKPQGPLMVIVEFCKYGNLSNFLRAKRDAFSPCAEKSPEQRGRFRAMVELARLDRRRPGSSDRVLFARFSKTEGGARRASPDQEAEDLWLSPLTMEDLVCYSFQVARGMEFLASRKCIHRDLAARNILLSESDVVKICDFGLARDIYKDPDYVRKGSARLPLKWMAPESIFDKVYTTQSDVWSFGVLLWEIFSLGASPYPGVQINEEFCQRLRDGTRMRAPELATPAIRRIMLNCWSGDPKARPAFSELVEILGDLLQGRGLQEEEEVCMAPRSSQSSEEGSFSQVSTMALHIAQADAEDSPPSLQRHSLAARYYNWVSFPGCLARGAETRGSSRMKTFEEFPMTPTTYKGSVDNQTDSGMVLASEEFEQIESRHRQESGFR
T2 sequence (P35968 807-1356): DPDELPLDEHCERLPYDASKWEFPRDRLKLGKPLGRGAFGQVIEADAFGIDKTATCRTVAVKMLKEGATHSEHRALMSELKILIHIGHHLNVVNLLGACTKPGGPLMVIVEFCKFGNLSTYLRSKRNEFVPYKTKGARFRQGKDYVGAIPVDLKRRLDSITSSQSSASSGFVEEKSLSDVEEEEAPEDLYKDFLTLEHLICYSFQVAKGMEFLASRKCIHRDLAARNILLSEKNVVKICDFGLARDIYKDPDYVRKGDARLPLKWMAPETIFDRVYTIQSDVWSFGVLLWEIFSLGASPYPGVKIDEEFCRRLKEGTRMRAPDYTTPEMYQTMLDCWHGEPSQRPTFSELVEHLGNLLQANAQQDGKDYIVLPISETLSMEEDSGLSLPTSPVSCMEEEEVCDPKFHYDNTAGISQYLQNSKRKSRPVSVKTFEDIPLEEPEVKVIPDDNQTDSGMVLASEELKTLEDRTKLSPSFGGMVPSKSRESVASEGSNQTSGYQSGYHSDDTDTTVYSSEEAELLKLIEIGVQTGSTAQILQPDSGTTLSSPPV
T1 sequence (P08581 1011-1343 limits assumed): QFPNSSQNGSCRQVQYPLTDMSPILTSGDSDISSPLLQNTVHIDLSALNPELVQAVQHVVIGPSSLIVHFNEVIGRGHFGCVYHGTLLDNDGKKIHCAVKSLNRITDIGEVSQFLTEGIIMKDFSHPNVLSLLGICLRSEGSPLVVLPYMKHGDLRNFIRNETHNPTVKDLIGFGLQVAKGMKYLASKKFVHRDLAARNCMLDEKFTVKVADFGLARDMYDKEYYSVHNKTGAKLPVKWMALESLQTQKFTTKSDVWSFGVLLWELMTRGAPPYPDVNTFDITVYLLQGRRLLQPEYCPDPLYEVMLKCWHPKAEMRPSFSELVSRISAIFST

For `COc1cc2nccc(Oc3ccc(NC(=O)C(=O)NCc4ccccc4)cc3F)c2cc1OC` [Entry 12], on c-Kit kinase, the IC50 fell in the range of 50 to 500 nM.
Take `COc1cc2c(Oc3ccc(NC(=S)NC(=O)Cc4ccccc4)cc3F)ncnc2cc1OCC1C[C@@H]2CN(C)C[C@@H]2C1` (stereo partly shown) [Entry 2]: the IC50 (in assay [1]; in assay [2]; in assay [3] (read-out: flt4 IC50); against c-Kit kinase) was below 50 nM each time.
In the case of `COc1cc2c(Oc3ccc(NC(=O)C(=O)NCc4cc(C(F)(F)F)cc(C(F)(F)F)c4)cc3F)ccnc2cc1OCC1CCNCC1` [Example 272, N-{[3,5-bis(trifluoromethyl)phenyl]methyl}-N′-[3-fluoro-4-({6-(methyloxy)-7-[(piperidin-4-ylmethyl)oxy]quinolin-4-yl}oxy)phenyl]ethanediamide], the IC50 in assay [1] (setting [5]) is below 50 nM; in assay [2] (setting [5]), below 50 nM; in assay [4] (setting [5]), 50 to 500 nM; against c-Kit kinase (setting [5]), 500 to 5000 nM.
On to `COc1cc2c(Oc3ccc(NC(=O)C(=O)NC4CCc5ccccc54)cc3F)ccnc2cc1OCC1CCNCC1` (stereo not shown) [Example 177, N-{3-Fluoro-4-[6-methoxy-7-(piperidin-4-ylmethoxy)-quinolin-4-yloxy]-phenyl}-N′-indan-1-yl-oxalamide], for which the IC50 on c-Kit kinase (setting [5]) was below 50 nM.
Regarding `COc1ccc(CNC(=O)C(=O)Nc2ccc(Oc3ccnc4cc(OCC5CCN(C)CC5)c(OC)cc34)c(F)c2)cc1` [Example 247, N-{3-fluoro-4-[(6-(methyloxy)-7-{[(1-methylpiperidin-4-yl)methyl]oxy}quinolin-4-yl)oxy]phenyl}-N′-{[4-(methyloxy)phenyl]methyl}ethanediamide], the IC50 in assay [1] (setting [5]) was below 50 nM; in assay [2] (setting [5]) it was 50 to 500 nM; in assay [4] (setting [5]), 50 to 500 nM; against c-Kit kinase (setting [5]) it was below 50 nM.
For the compound `COc1cc2c(Oc3ccc(NC(=O)C(=O)N[C@@H](C)c4ccccc4)cc3F)ccnc2cc1OCC1CCNCC1` [Example 184, N-{3-Fluoro-4-[6-methoxy-7-(piperidin-4-ylmethoxy)-quinolin-4-yloxy]-phenyl}-N′-(1S-phenyl-ethyl)-oxalamide], the IC50 on c-Kit kinase (setting [5]) was below 50 nM.
For `COc1cc2nccc(Oc3ccc(NC(=O)C(=O)NCC(c4ccccc4)N(C)C)cc3F)c2cc1OC` (stereo not shown) [Example 235, N-(4-{[6,7-bis(methyloxy)quinolin-4-yl]oxy}-3-fluorophenyl)-N′-[2-(dimethylamino)-2-phenylethyl]ethanediamide], the IC50 in assay [1] (setting [5]) is 50 to 500 nM; in assay [2] (setting [5]) it was 50 to 500 nM; in assay [4] (setting [5]), below 50 nM; against c-Kit kinase (setting [5]), 50 to 500 nM.
For the compound `COc1cc2c(Oc3ccc(NC(=O)C(=O)NCc4cnccn4)cc3F)ccnc2cc1OCC1CCNCC1` [Example 273, N-[3-fluoro-4-({6-(methyloxy)-7-[(piperidin-4-ylmethyl)oxy]quinolin-4-yl}oxy)phenyl]-N′-(pyrazin-2-ylmethyl)ethanediamide], the IC50 is 50 to 500 nM in assay [1] (setting [5]), 500 to 5000 nM in assay [2] (setting [5]), 50 to 500 nM in assay [4] (setting [5]) and 500 to 5000 nM at c-Kit kinase (setting [5]).
On to `COc1cc2c(Oc3ccc(NC(=O)C(=O)NCC(O)c4ccccc4)cc3F)ccnc2cc1OCC1CCNCC1` (stereo not shown) [Example 251, N-[3-fluoro-4-({6-(methyloxy)-7-[(piperidin-4-ylmethyl)oxy]quinolin-4-yl}oxy)phenyl]-N′-(2-hydroxy-2-phenylethyl)ethanediamide], for which the IC50 (in assay [1] (setting [5]); in assay [2] (setting [5]); in assay [4] (setting [5]); against c-Kit kinase (setting [5])) was 50 to 500 nM in each case.
`COc1cc2c(Oc3ccc(NC(=S)NC(=O)Cc4ccccc4)cc3F)ncnc2cc1OCC1C[C@H]2CNC[C@H]2C1` (stereo partly shown) [Entry 1]: the IC50 in assay [2] and in assay [3] (read-out: flt4 IC50) was below 50 nM throughout.
As for `COc1cc2nccc(Oc3ccc(NC(=O)C(=O)NCCC4CCCN4C)cc3F)c2cc1OC` (stereo not shown) [Entry 72], the IC50 (in assay [1]; in assay [4]; against c-Kit kinase) was 500 to 5000 nM throughout.
Take `COc1cc2nccc(Oc3ccc(NC(=O)C4(C(=O)Nc5ccc(F)cc5)CC4)cc3F)c2cc1OC` [Example 319, N-(4-{[6,7-bis(methyloxy)quinolin-4-yl]oxy}-3-fluorophenyl)-N′-(4-fluorophenyl)cyclopropane-1,1-dicarboxamide]: the IC50 (in assay [3] (read-out: flt4 IC50); in assay [4]; against c-Kit kinase) was below 50 nM in each case.
For the compound `COc1cc2c(Oc3ccc(NC(=O)C(=O)NCCc4cccc(Cl)c4)cc3F)ccnc2cc1OCC1CCNCC1` [Example 149, N-[2-(3-Chloro-phenyl)-ethyl]-N′-{3-fluoro-4-[6-methoxy-7-{piperidin-4-ylmethoxy)-quinolin-4-yloxy]-phenyl}-oxalamide], the IC50 on c-Kit kinase is below 50 nM.
For `CC[C@H](NC(=O)C(=O)Nc1ccc(Oc2ccnc3cc(OCC4CCNCC4)c(OC)cc23)c(F)c1)c1ccccc1` [Example 255, N-[3-fluoro-4-({6-(methyloxy)-7-[(piperidin-4-ylmethyl)oxy]quinolin-4-yl}oxy)phenyl]-N′-[(1S)-1-phenylpropyl]ethanediamide], the IC50 is below 50 nM in assay [1] (setting [5]), 50 to 500 nM in assay [2] (setting [5]), 50 to 500 nM in assay [4] (setting [5]) and 500 to 5000 nM at c-Kit kinase (setting [5]).
The compound `CCOc1ccc(CCNC(=O)C(=O)Nc2ccc(Oc3ccnc4cc(OCC5CCNCC5)c(OC)cc34)c(F)c2)cc1` [Example 167, N-[2-(4-Ethoxy-phenyl)-ethyl]-N′-{3-fluoro-4-[6-methoxy-7-(piperidin-4-ylmethoxy)-quinolin-4-yloxy]-phenyl}-oxalamide] showed an IC50 against c-Kit kinase (setting [5]) of 50 to 500 nM.
In the case of `COc1cc2nccc(Oc3ccc(NC(=O)C(=O)N[C@@H]4CCc5ccccc5C4)cc3F)c2cc1OC` [Entry 71], the IC50 in assay [1] is 50 to 500 nM; in assay [2], above 5000 nM; in assay [3] (read-out: flt4 IC50), 500 to 5000 nM; on c-Kit kinase, 50 to 500 nM.
On to `COc1cc2nccc(Oc3ccc(NC(=O)C(=O)NCCOc4ccccc4)cc3F)c2cc1OC` [Entry 73], for which the IC50 in assay [1] lay in the range of 50 to 500 nM; in assay [2], 50 to 500 nM; in assay [3] (read-out: flt4 IC50), 500 to 5000 nM; against c-Kit kinase, 50 to 500 nM.
With `COc1cc2nccc(Oc3ncc(NC(=O)C4(C(=O)Nc5ccccc5)CC4)cc3Cl)c2cc1OC` [Example 305, N-(6-{[6,7-bis(methyloxy)quinolin-4-yl]oxy}-5-chloropyridin-3-yl)-N′-phenylcyclopropane-1,1-dicarboxamide], the IC50 in assay [1] was below 50 nM; in assay [2], 50 to 500 nM; in assay [4], below 50 nM; against c-Kit kinase it was 50 to 500 nM.
In the case of `COc1cc2c(Oc3ccc(NC(=O)[C@]4(C(=O)Nc5ccc(F)cc5)C[C@H]4C)cc3F)ccnc2cc1OCCCN1CCN(C)CC1` [Example 355, (1R,2R)-N-{3-fluoro-4-[(6-(methyloxy)-7-{[3-(4-methylpiperazin-1-yl)propyl]oxy}quinolin-4-yl)oxy]phenyl}-N′-(4-fluorophenyl)-2-methylcyclopropane-1,1-dicarboxamide], the IC50 in assay [1], in assay [2] and in assay [4] was below 50 nM in each case.
For `COc1cc2c(Oc3ccc(NC(=O)C4(C(=O)Nc5ccc(F)cc5)CC4(C)C)cc3F)ccnc2cc1OCCCN1CCOCC1` (stereo not shown) [Example 377, N-[3-fluoro-4-({6-(methyloxy)-7-[(3-morpholin-4-ylpropyl)oxy]quinolin-4-yl}oxy)phenyl]-N′-(4-fluorophenyl)-2,2-dimethylcyclopropane-1,1-dicarboxamide], the IC50 in assay [1] is below 50 nM; in assay [2], below 50 nM; in assay [4], 50 to 500 nM.
As to `COc1cc2nccc(Oc3ccc(NC(=O)C4(C(=O)Nc5ccc(F)cc5)CC4)cc3)c2cc1OC` [Example 289, N-(4-{[6,7-bis(methyloxy)quinolin-4-yl]oxy}phenyl)-N′-(4-fluorophenyl)cyclopropane-1,1-dicarboxamide], inhibition in assay [3] was half-maximal at 5.58 nM (IC50).
For `COc1cc2nccc(Oc3ccc(NC(=O)C4(C(=O)Nc5ccccc5CN5CCCCC5)CC4)cc3)c2cc1OC` [Example 394, N-(4-{[6,7-bis(methyloxy)quinolin-4-yl]oxy}phenyl)-N′-[2-(piperidin-1-ylmethyl)phenyl]cyclopropane-1,1-dicarboxamide], the IC50 in assay [1] was 50 to 500 nM; in assay [2] it was above 5000 nM; in assay [4], 50 to 500 nM.
As to `COc1cc2c(Oc3ccc(NC(=O)C(=O)NCCc4ccc(Cl)c(Cl)c4)cc3F)ccnc2cc1OCC1CCNCC1` [Example 223, N-[2-(3,4-dichlorophenyl)ethyl]-N′-[3-fluoro-4-({6-(methyloxy)-7-[(piperidin-4-ylmethyl)oxy]quinolin-4-yl}oxy)phenyl]ethanediamide], the IC50 (in assay [1] (setting [5]); in assay [2] (setting [5]); in assay [4] (setting [5]); on c-Kit kinase (setting [5])) was below 50 nM throughout.
